Measurements taken from patent publication US6916923B2 (Hoffmann-La Roche Inc., priority 1999, dated 2005).

Columns and labels:
[1] = system: estrogen receptor negative epithelial breast carcinoma line (MDA-MB-435); test: MDA-MB-435 cell-based antiproliferative (MTT) assay; settings: Homo sapiens, MDA-MB-435, 120 h, 2000 cells per well, 5 days post addition of test compound, read-out: Antiproliferative Activity of MDA-MB435 (breast) Assay - IC50 Range
Procedure: (§1) The estrogen receptor negative epithelial breast carcinoma line (MDA-MB-435) was purchased from American Type Cell Culture Collection (ATCC; Rockville, Md.) and was grown in the medium recommended by ATCC. For analysis of the effect of the test compounds on growth of these cells, the cells were plated at 2000 cells per well in a 96-well tissue culture plate, and were incubated overnight at 37° C. with 5% CO2. The next day, the test compounds were dissolved in 100% dimethyl sulfoxide (DMSO) to yield a 10 mM stock solution. Each compound was diluted with sterile medium to 1 mM in a sufficient quantity to yield a final concentration of 120 μM. The compounds were then serially diluted in medium with 1.2% DMSO. One-fourth final volume of the diluted compounds was transferred to 96 well plates. Test compounds were assayed in duplicate. DMSO was added to a row of “control cells” such that the final concentration of DMSO in each well was 0.3%. Wells to which no cells were added served as the “blank.” Wells to which no inhibitor was added served as “no inhibitor control”. The plates were returned to the incubator, and 5 days post addition of test compound, were analyzed as described below.
(§2) 3-(4,5-Dimethylthiazole-2-yl)-2,5-diphenyl-2H-tetrazolium bromide (thiazolyl blue; MTT) was added to each well to yield a final concentration of 1 mg/mL. The plates were then incubated at 37° C. for 3 hours. The plates were centrifuged at 1000 rpm for 5 minutes prior to aspiration of the MTT-containing medium. The MTT-containing medium was then removed and 100 μL 100% ethanol was added to each well to dissolve the resulting formazan metabolite. To ensure complete dissolution, plates were shaken for 15 minutes at room temperature. Absorbencies were read in a microtiter plate reader (Molecular Dynamics) at a wavelength of 570 nm with a 650 nm reference. Percent inhibition was calculated by subtracting the absorbance of the blank (no cell) wells from all wells, then subtracting the division of the average absorbance of each test duplicate by the average of the controls from 1.00. Inhibitory concentrations (IC50) were determined from the linear regression of a plot of the logarithm of the concentration versus the percent inhibition.

[2] = target: T1, Recombinant active human Cyclin E/CDK2 complexes (Homo sapiens, UniProt P24941); test: CDK2 FlashPlate Assay (inhibition of Rb phosphorylation); type: biochemical; settings: Cyclin E/CDK2, Rb substrate, 33P-ATP, 25 minutes at room temperature; read-out: Inhibition of Cdk2 - IC50 Range
T1 construct: made in house; host or cells: insect cells
Procedure: To determine inhibition of CDK2 activity, purified recombinant retinoblastoma (Rb) protein was coated on 96 well FlashPlates (New England Nuclear, Boston, Mass.). Rb is a natural substrate for phosphorylation by CDK2 (Herwig and Strauss Eurr. J. Biochem., Vol. 246 (1997) pp. 581-601 and references therein). Recombinant active human Cyclin E/CDK2 complexes were partially purified from extracts of insect cells. The active Cyclin E/CDK2 was added to the Rb-coated FlashPlates along with ^33P-ATP and dilutions of test compounds. Plates were incubated for 25 minutes at room temperature with shaking, then washed and counted in the Topcount scintillation counter (Packard Instrument Co., Downers Grove, Ill.). Dilutions of test compounds were tested in duplicate in each assay. The percent inhibition of Rb phosphorylation, which is a measure of the inhibition of CDK2 activity, was determined according to the following formula: [formula] where “test compound” refers to the average counts per minute of the test duplicates, “nonspecific” refers to the average counts per minute when no Cyclin E/CDK2 was added, and “total” refers to the average counts per minute when no compound was added.

[3] = system: colon adenocarcinoma line SW480; test: SW480 cell-based antiproliferative (MTT) assay; settings: Homo sapiens, SW480, 144 h, 1000 cells per well, 6 days post addition of test compound, read-out: Antiproliferative Activity SW480 (colon) Assay - IC50 Range
Procedure: as §1, §2
(§3) The colon adenocarcinoma line SW480 and the colon carcinoma line HCT-116 also were obtained from the ATCC and were tested according to the same protocol provided above for MDA-MB435 cell based assay with the following modifications. Cell line SW480 was plated at 1000 cells per well and analyzed at 6 days post addition of the test compound. Cell line HCT-116 was plated at 1000 cells per well and analyzed at 4 days post addition of test compound.

[4] = system: colon carcinoma line HCT-116; test: HCT-116 cell-based antiproliferative (MTT) assay; settings: Homo sapiens, HCT-116, 96 h, 1000 cells per well, 4 days post addition of test compound, read-out: Antiproliferative Activity HCT 116 (colon) Assay - IC50 Range
Procedure: as §1, §2, §3

Row | Structure (SMILES) | IC50 [1] [nM] | IC50 [2] [nM] | IC50 [3] [nM] | IC50 [4] [nM]
1 | Cc1[nH]nc2c1N=C(c1ccccc1F)c1cc(I)ccc1N2 [Compound B29, 3-methyl-5-(2-fluorophenyl)-7-iodo-pyrazolo[3,4][1,4]benzodiazepine] | 10 to 1000 | 10 to 990 | 1100 to 9990 | –
2 | O=[N+]([O-])c1ccc2c(c1)C(c1ccccc1Cl)=Nc1c(n[nH]c1CO)N2 [Compound C14, 3-hydroxymethyl-5-(2-chlorophenyl)-7-nitro-pyrazolo[3,4][1,4]benzodiazepine] | 10 to 1000 | 10 to 990 | 10 to 1000 | –
3 | C=CC(=O)Nc1ccc2c(c1)C(c1ccccc1Cl)=Nc1c(n[nH]c1C)N2 [Compound C8, N-(3-methyl-5-(2-chlorophenyl)-pyrazolo[3,4][1,4]benzodiazepin-7-yl)-2-propenamide] | 10 to 1000 | 10 to 990 | 10 to 1000 | –
4 | Cc1[nH]nc2c1N=C(c1ccccc1Cl)c1ccccc1N2 [Compound B30, 3-methyl-5-(2-chlorophenyl)-pyrazolo[3,4][1,4]benzodiazepine] | 1100 to 9990 | 10 to 990 | 1100 to 9990 | –
5 | O=[N+]([O-])c1ccc2c(c1)C(c1ccccc1Cl)=Nc1c(n[nH]c1-c1ccco1)N2 [Compound D7] | – | 10 to 990 | 10000 to 30000 | 10000 to 30000
6 | O=[N+]([O-])c1ccc2c(c1)C(c1ccccc1Cl)=Nc1c(n[nH]c1-c1ccccc1)N2 [Compound B23, 3-phenyl-5-(2-chlorophenyl)-7-nitro-pyrazolo[3,4][1,4]benzodiazepine] | – | 10 to 990 | 10000 to 30000 | 10000 to 30000
7 | NC(=O)c1ccc2c(c1)C(c1ccccc1F)=Nc1c[nH]nc1N2 [Compound D50] | – | 10 to 990 | 1100 to 9990 | 1100 to 9990
8 | Fc1ccccc1C1=Nc2c[nH]nc2Nc2ccccc21 [Compound A10, 5-(2-fluorophenyl)-pyrazolo[3,4][1,4]benzodiazepine] | – | 1000 to 9990 | 10000 to 30000 | 10000 to 30000
9 | Cc1[nH]nc2c1N=C(c1ccccc1F)c1ccccc1N2 [Compound B21, 3-methyl-5-(2-fluorophenyl)-pyrazolo[3,4][1,4]benzodiazepine] | 1100 to 9990 | 10 to 990 | 10 to 1000 | –
10 | O=[N+]([O-])c1ccc2c(c1)C(c1ccccc1)=Nc1c[nH]nc1N2 [Compound A16, 5-phenyl-7-nitro-pyrazolo[3,4][1,4]benzodiazepine] | – | 10 to 990 | – | 10000 to 30000
11 | Cc1[nH]nc2c1N=C(c1ccccc1Cl)c1cc(Cl)ccc1N2 [Compound B20, 3-methyl-5-(2-chlorophenyl)-7-chloro-pyrazolo[3,4][1,4]benzodiazepine] | 1100 to 9990 | 10 to 990 | 1100 to 9990 | –
12 | Cc1ccccc1-c1[nH]nc2c1N=C(c1ccccc1Cl)c1cc([N+](=O)[O-])ccc1N2 [Compound D37] | – | 1000 to 9990 | 10000 to 30000 | 10000 to 30000
13 | CC(=O)Nc1ccc2c(c1)C(c1ccccc1Cl)=Nc1c(n[nH]c1C)N2 [Compound C7, N-(3-methyl-5-(2-chlorophenyl)-pyrazolo[3,4][1,4]benzodiazepin-7-yl)-acetamide] | 10 to 1000 | 10 to 990 | 10 to 1000 | –
14 | COc1ccc2c(c1)C(c1ccccc1Cl)=Nc1c(n[nH]c1C)N2 [Compound B18, 3-methyl-5-(2-chlorophenyl)-7-methoxy-pyrazolo[3,4][1,4]benzodiazepine] | 1100 to 9990 | 10 to 990 | 1100 to 9990 | –
15 | Cc1[nH]nc2c1N=C(c1ccccc1)c1cc(Cl)ccc1N2 [Compound B19, 3-methyl-5-phenyl-7-chloro-pyrazolo[3,4][1,4]benzodiazepine] | 1100 to 9990 | 10 to 990 | 1100 to 9990 | –
16 | Cc1[nH]nc2c1N=C(c1ccccc1Cl)c1cc(NS(C)(=O)=O)ccc1N2 [Compound C9, N-(3-methyl-5-(2-chlorophenyl)-pyrazolo[3,4][1,4]benzodiazepin-7-yl)-methanesulfonamide] | 10 to 1000 | 10 to 990 | 10 to 1000 | –
17 | CSc1ccc(-c2[nH]nc3c2N=C(c2ccccc2Cl)c2cc([N+](=O)[O-])ccc2N3)cc1 [Compound D11] | – | 10 to 990 | – | 10000 to 30000
18 | O=[N+]([O-])c1ccc2c(c1)C(c1ccccc1Cl)=Nc1c(n[nH]c1-c1ccc[nH]1)N2 [Compound B1, 3-(2-pyrrolyl)-5-(2-chlorophenyl)-7-nitro-pyrazolo[3,4][1,4]benzodiazepine] | – | 10 to 990 | 1100 to 9990 | 1100 to 9990
19 | Cc1[nH]nc2c1N=C(c1ccccc1)c1cc(F)ccc1N2 [Compound B22, 3-methyl-5-phenyl-7-fluoro-pyrazolo[3,4][1,4]benzodiazepine] | 10 to 1000 | 10 to 990 | 1100 to 9990 | –
20 | N#Cc1ccc2c(c1)C(c1ccccc1F)=Nc1c(n[nH]c1CO)N2 [Compound B35, 3-hydroxymethyl-5-(2-fluorophenyl)-pyrazolo[3,4][1,4]-benzodiazepine-7-carbonitrile] | 10 to 1000 | 10 to 990 | 10 to 1000 | –
21 | O=C(NCCO)c1ccc2c(c1)C(c1ccccc1F)=Nc1c[nH]nc1N2 [Compound C2, N-(2-hydroxyethyl)-5-(2-fluorophenyl)-pyrazolo[3,4][1,4]benzodiazepine-7-carboxamide] | – | 10 to 990 | – | 10000 to 30000
22 | CS(=O)(=O)c1ccc2c(c1)C(c1ccccc1)=Nc1c[nH]nc1N2 [Compound A14, 5-phenyl-7-methanesulfonyl-pyrazolo[3,4][1,4]benzodiazepine] | – | 1000 to 9990 | – | 10000 to 30000
23 | Cc1[nH]nc2c1N=C(c1ccccc1F)c1cc([N+](=O)[O-])ccc1N2 [Compound B31, 3-methyl-5-(2-fluorophenyl)-7-nitro-pyrazolo[3,4][1,4]benzodiazepine] | 10 to 1000 | 10 to 990 | 10 to 1000 | –
24 | Cc1[nH]nc2c1N=C(c1ccccc1Cl)c1cc(N)ccc1N2 [Compound C4] | 10 to 1000 | 10 to 990 | 10 to 1000 | –
25 | O=[N+]([O-])c1ccc2c(c1)C(c1ccccc1Cl)=Nc1c(n[nH]c1-c1c[nH]cn1)N2 [Compound B14, 3-(4-imidazolyl)-5-(2-chlorophenyl)-7-nitro-pyrazolo[3,4][1,4]benzodiazepine] | 1100 to 9990 | 10 to 990 | – | –
26 | NC(=O)c1[nH]nc2c1N=C(c1ccccc1Cl)c1cc([N+](=O)[O-])ccc1N2 [Compound C10, 5-(2-chlorophenyl)-7-nitro-pyrazolo[3,4][1,4]benzodiazepine-3-carboxamide] | 10000 to 30000 | 10 to 990 | – | –
27 | c1ccc(C2=Nc3c[nH]nc3Nc3ccccc32)cc1 [Compound A9, 5-phenyl-pyrazolo[3,4][1,4]benzodiazepine] | – | 1000 to 9990 | 10000 to 30000 | 10000 to 30000
28 | O=[N+]([O-])c1ccc2c(c1)C(c1ccccc1Cl)=Nc1c(n[nH]c1-c1cc[nH]n1)N2 [Compound B15] | 10000 to 30000 | 10 to 990 | – | –
29 | O=[N+]([O-])c1ccc2c(c1)C(c1ccccc1)=Nc1c(n[nH]c1C1CC1)N2 [Compound D18] | – | 10 to 990 | – | 10000 to 30000
